In experiment [1] the target is T1, Histone-lysine N-methyltransferase NSD2 (Homo sapiens, UniProt O96028).
T1 sequence (O96028 whole entry): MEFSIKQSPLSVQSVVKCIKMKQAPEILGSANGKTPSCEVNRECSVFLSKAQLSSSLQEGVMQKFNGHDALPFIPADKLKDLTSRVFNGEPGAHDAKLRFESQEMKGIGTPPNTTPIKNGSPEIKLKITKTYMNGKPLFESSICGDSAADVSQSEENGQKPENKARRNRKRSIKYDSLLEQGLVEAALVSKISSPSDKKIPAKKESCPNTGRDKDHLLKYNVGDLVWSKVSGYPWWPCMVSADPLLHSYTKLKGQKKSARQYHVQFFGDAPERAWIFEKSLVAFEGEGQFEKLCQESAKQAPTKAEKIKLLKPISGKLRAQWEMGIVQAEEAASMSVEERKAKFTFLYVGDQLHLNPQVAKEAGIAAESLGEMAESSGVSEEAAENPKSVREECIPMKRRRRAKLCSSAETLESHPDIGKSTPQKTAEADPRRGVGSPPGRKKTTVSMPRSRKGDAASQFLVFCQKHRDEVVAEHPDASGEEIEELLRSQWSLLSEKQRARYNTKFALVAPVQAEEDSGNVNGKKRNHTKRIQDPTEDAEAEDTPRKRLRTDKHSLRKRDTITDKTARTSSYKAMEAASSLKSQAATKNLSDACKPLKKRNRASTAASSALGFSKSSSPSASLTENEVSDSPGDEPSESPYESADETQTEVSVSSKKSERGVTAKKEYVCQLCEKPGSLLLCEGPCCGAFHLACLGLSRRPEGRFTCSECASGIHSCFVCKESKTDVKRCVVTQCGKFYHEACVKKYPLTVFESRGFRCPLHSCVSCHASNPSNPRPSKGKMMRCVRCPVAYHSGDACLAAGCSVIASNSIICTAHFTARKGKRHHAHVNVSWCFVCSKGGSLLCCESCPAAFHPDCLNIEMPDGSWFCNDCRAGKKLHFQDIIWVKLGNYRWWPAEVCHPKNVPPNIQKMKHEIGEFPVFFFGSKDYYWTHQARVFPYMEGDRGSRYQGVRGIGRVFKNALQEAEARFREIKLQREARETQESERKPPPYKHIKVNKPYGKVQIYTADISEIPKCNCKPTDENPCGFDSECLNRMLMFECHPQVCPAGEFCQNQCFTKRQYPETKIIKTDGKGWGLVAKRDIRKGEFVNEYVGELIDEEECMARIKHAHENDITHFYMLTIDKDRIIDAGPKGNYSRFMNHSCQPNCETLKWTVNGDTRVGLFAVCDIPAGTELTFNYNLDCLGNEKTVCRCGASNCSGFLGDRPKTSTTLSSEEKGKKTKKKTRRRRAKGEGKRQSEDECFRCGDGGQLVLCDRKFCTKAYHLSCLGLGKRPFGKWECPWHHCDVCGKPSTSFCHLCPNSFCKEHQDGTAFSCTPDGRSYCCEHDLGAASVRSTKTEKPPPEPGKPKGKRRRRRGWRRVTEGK
It is filed as biochemical.

Experiment [2] addresses T2, Replicative DNA helicase DnaB (Mycobacterium tuberculosis, UniProt P9WMR3).
T2 sequence (P9WMR3 whole entry): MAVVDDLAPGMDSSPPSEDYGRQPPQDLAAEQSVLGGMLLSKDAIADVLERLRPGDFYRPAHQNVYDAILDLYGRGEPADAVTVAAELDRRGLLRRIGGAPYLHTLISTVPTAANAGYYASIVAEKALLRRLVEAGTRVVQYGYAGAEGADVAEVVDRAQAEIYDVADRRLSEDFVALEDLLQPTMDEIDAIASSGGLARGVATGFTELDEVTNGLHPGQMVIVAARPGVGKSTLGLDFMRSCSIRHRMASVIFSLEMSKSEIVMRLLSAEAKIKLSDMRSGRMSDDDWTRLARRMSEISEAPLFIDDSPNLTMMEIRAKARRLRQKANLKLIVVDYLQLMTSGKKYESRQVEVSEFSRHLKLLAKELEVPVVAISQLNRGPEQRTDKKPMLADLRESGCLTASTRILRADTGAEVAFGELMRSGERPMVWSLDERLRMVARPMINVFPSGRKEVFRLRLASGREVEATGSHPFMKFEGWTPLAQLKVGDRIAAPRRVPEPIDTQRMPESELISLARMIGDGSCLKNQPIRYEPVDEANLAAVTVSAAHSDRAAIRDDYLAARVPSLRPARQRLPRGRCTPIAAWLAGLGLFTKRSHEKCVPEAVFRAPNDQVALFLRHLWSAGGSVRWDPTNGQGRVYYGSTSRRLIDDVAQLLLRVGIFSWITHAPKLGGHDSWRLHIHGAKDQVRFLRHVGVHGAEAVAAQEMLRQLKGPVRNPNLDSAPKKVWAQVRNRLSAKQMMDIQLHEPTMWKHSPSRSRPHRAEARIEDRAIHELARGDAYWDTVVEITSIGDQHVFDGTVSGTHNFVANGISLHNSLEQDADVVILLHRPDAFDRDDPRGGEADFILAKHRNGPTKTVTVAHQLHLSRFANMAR
In words: DnaB intein splicing inhibitors, dose response, biochemical, cell-free fluorescence (AID 449749). The format is functional.

Experiment [3] concerns Streptococcus sp. 'group A'. The experiment is described as follows: Streptococcus pyogenes SK(-)GAS viability under kanamycin – luminescence, BacTiterGlo, confirmation, counter-screen for streptokinase expression inhibitor project, dose response (AID 1900). It is filed as functional, organism-based. In general terms: The purpose of a counterscreen is to sort out artefacts and off-target activity.

A further experiment has as its system Streptococcus. The experiment is described as follows: GAS UMAA2166 growth inhibition – luminescence, BacTiterGlo, counter-screen for streptokinase expression inhibitor project, dose response (AID 1915).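 Note: potency for reduction of bacterial viability or growth.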 The format is functional, organism-based.
Experiment [4] is described as follows: non-specific 3'UTR reporter inhibition in Clone20-Shn3RL – cell-based, Renilla luciferase, cherry-picked, counter-screen for Shn3 inhibitor project, dose response (AID 624133). It is filed as functional.
The target in experiment [5] is Dual specificity tyrosine-phosphorylation-regulated kinase 1A (Rattus norvegicus, UniProt Q63470). The format is biochemical, Homo sapiens.
The target of experiment [6] is Protein-tyrosine kinase 2-beta (Homo sapiens, UniProt Q14289). It is filed as functional.
Chain of Protein-tyrosine kinase 2-beta (Q14289 whole entry): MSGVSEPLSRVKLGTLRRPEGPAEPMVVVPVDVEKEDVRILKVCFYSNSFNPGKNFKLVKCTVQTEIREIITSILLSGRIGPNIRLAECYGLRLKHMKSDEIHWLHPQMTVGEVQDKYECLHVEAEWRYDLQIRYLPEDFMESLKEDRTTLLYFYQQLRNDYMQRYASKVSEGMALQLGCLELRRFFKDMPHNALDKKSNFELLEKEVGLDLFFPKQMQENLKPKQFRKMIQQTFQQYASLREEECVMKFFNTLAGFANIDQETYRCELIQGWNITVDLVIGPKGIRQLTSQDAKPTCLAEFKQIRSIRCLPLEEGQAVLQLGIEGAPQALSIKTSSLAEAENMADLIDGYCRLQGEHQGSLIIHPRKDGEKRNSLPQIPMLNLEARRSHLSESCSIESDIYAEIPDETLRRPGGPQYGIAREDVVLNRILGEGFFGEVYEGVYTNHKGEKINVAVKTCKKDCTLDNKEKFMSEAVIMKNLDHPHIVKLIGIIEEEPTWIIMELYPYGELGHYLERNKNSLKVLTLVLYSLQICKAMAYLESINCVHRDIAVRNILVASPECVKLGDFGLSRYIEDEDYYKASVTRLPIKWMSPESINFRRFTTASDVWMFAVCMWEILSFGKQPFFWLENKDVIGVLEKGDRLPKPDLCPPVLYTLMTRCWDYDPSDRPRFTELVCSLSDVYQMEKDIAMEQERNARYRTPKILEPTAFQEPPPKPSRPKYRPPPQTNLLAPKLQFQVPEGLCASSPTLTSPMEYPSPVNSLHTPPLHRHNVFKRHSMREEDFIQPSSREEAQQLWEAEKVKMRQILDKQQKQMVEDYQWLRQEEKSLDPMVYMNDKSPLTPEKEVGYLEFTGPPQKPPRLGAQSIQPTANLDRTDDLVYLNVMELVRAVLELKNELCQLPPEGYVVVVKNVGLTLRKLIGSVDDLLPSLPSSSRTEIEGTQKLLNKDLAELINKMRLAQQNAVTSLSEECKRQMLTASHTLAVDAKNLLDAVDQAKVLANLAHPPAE
Experiment [7] has as its target cAMP-dependent protein kinase catalytic subunit alpha (Homo sapiens, UniProt P17612). It is filed as functional.

Calls of active or inactive are those of the source.

As usually defined, the AC50 is the concentration giving half of the maximal activity seen. Usually EC50 stands for the concentration at which the effect is half-maximal. In general, Ki refers to a measure of affinity in units of concentration, obtained from inhibition or displacement.

For `Cc1ccc(C(=O)NC2(O)C(=O)c3ccccc3C2=O)cc1C`, the AC50 is 6.83 µM (active) in experiment [1] and 6.24 µM (active) in experiment [2].

In the case of `O=[N+]([O-])c1c(Nc2ccccn2)cc(Cl)c2nonc12`, in experiment [2], the AC50 was 1.79 µM (active).

For `CC[C@@H](C)[C@H](CNC)NC[C@@H](Cc1cccc2ccccc12)NCCc1cccc(C(F)(F)F)c1`, the EC50 in experiment [3] is 4.8 µM (active); with Streptococcus, 7.12 µM (active). Further, the AC50 in experiment [4] was 3.28 µM (active); in experiment [5], 79 µM (active).

For `Cc1ccc(S(=O)(=O)/N=C2\C=C(Nc3cccc(C(=O)O)c3)C(=O)c3ccccc32)cc1`, the EC50 is 4.62 µM (active) in experiment [3] and 14.3 µM (active) in the experiment on Streptococcus. For the same compound, the AC50 is 0.422 µM (active) in experiment [1], 0.516 µM (active) in experiment [2] and 2.57 µM (active) in experiment [5].

Regarding `CC(C)(CO)CNc1nccc(-c2c(-c3ccc(F)cc3)nc3c(CC4CC4)nccn23)n1`, the Ki was > 1.58 µM (inactive) in experiment [6] and > 7.94 µM (inactive) in experiment [7].

(Values after ChEMBL document CHEMBL1201862, “PubChem BioAssay data set” (2004).)
